“And” between values parts separate entries of the source, which are not always exact repeats. Equal values may be shown once.

Usually IC50 stands for the concentration that inhibits the measured activity by half.

T1 sequence (P05067 672-713 limits assumed): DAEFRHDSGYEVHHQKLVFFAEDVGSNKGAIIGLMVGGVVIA

This experiment concerns the target T1, biotinylated Aβ1-42 (Homo sapiens, UniProt P05067).
T1 construct: To assure monomerisation of biotinylated Aβ1-42 (Anaspec #23523-0.5) the peptide was thoroughly monomerised; purchased Anaspec 23523-0.5
As to the kind of experiment: Inhibition of Abeta oligomerisation (biotinylated Aβ1-42, neutravidin plate, streptavidin-HRP). The following applies: inhibition of Aβ1-42 aggregation, approximately 12 nM Aβ1-42, PBS pH 7.4, 2% DMSO, 30 min RT. Format: biochemical.
Molecule `CC(=O)NCCc1cc(-c2ccc(C(=O)O)s2)sc1-c1ccc(-c2sc(-c3ccc(C(=O)O)s3)cc2CCNC(C)=O)s1` [Example 7, 5-(5-{5-[5-(5-Carboxythiophen-2-yl)-3-(2-acetamidoethyl)thiophen-2-yl]thiophen-2-yl}-4-(2-acetamidoethyl)thiophen-2-yl)thiophene-2-carboxylic acid] gave an IC50 of 3.98 µM.

As for `NCCc1ccsc1-c1ccc(-c2sccc2CCN)s1` [Example 8, 2-(2-{5-[3-(2-Aminoethyl)thiophen-2-yl]thiophen-2-yl}thiophen-3-yl)ethan-1-amine], half-maximal inhibition (IC50) was put at 15.8 µM.

Consider `O=C(O)Cc1cc(-c2cccc(C(=O)O)c2)sc1-c1ccc(-c2sc(-c3cccc(C(=O)O)c3)cc2CC(=O)O)s1` [Example 10, 3-[4-(Carboxymethyl)-5-{5-[3-(carboxymethyl)-5-(3-carboxyphenyl)thiophen-2-yl]thiophen-2-yl}thiophen-2-yl]benzoic acid], for which the IC50 is 7.94 µM.

Molecule `O=C(O)Cc1cc(-c2ccccc2C(=O)O)sc1-c1ccc(-c2sc(-c3ccccc3C(=O)O)cc2CC(=O)O)s1` [Example 11, 2-[4-(Carboxymethyl)-5-{5-[3-(carboxymethyl)-5-(2-carboxyphenyl)thiophen-2-yl]thiophen-2-yl}thiophen-2-yl]benzoic acid] had an IC50 of 12.6 µM.

As to `O=C(O)Cc1cc(-c2cccs2)sc1-c1ccc(-c2sc(-c3ccc(C(=O)O)s3)cc2CC(=O)O)s1` [Example 12, 5-[4-(Carboxymethyl)-5-{5-[3-(carboxymethyl)-5-(thiophen-2-yl)thiophen-2-yl]thiophen-2-yl}thiophen-2-yl]thiophene-2-carboxylic acid], the IC50 is 1.58 µM.

As to `O=C(O)Cc1cc(-c2cccnc2)sc1-c1ccc(-c2sc(-c3ccc(C(=O)O)s3)cc2CC(=O)O)s1` [Example 13, 5-[4-(Carboxymethyl)-5-{5-[3-(carboxymethyl)-5-(pyridin-3-yl)thiophen-2-yl]thiophen-2-yl}thiophen-2-yl]thiophene-2-carboxylic acid], the IC50 is 7.94 µM.

Turning to `O=C(O)Cc1cc(-c2cccc(C(=O)O)c2)sc1-c1ccc(-c2sc(-c3ccc(C(=O)O)s3)cc2CC(=O)O)s1` [Example 14, 5-[4-(Carboxymethyl)-5-{5-[3-(carboxymethyl)-5-(3-carboxyphenyl)thiophen-2-yl]thiophen-2-yl}thiophen-2-yl]thiophene-2-carboxylic acid], inhibition was half-maximal at 2 µM (IC50).

The molecule `O=C(O)Cc1cc(-c2cccnc2)sc1-c1ccc(-c2sc(-c3cccnc3)cc2CC(=O)O)s1` [Example 15, 2-(2-{5-[3-(Carboxymethyl)-5-(pyridin-3-yl)thiophen-2-yl]thiophen-2-yl}-5-(pyridin-3-yl)thiophen-3-yl)acetic acid] gave a concentration for half-maximal inhibition (IC50) of 50.1 µM.

On to `O=C(O)Cc1cc(-c2ccc(-c3ccc(C(=O)O)cc3)s2)sc1-c1ccc(-c2sc(-c3ccc(-c4ccc(C(=O)O)cc4)s3)cc2CC(=O)O)s1` [Example 19, 4-{5-[4-(Carboxymethyl)-5-{5-[3-(carboxymethyl)-5-[5-(4-carboxyphenyl)thiophen-2-yl]thiothiophen-2-yl]thiophen-2-yl}thiophen-2-yl]thiophen-2-yl}benzoic acid], for which the IC50 is 3.98 µM.

As to `O=C(O)Cc1cc(-c2ccc(-c3cccc(C(=O)O)c3)s2)sc1-c1ccc(-c2sc(-c3ccc(-c4cccc(C(=O)O)c4)s3)cc2CC(=O)O)s1` [Example 20, 3-{5-[4-(Carboxymethyl)-5-{5-[3-(carboxymethyl)-5-[5-(3-carboxyphenyl)thiophen-2-yl]thiophen-2-yl]thiophen-2-yl}thiophen-2-yl]thiophen-2-yl}benzoic acid], the 50% inhibitory concentration (IC50) was 1 µM.

For `CS(=O)(=O)c1cccc(-c2cc(CC(=O)O)c(-c3ccc(-c4sc(-c5cccc(S(C)(=O)=O)c5)cc4CC(=O)O)s3)s2)c1` [Example 22, 2-(2-{5-[3-(Carboxymethyl)-5-(3-methanesulfonylphenyl)thiophen-2-yl]thiophen-2-yl}-5-(3-methanesulfonylphenyl)thiophen-3-yl)acetic acid], the midpoint of inhibition, the IC50, lay at 2.51 µM.

On to `CNS(=O)(=O)c1ccc(-c2cc(CC(=O)O)c(-c3ccc(-c4sc(-c5ccc(S(=O)(=O)NC)cc5)cc4CC(=O)O)s3)s2)cc1` [Example 23, 2-(2-{5-[3-(Carboxymethyl)-5-[4-(methylsulfamoyl)phenyl]thiophen-2-yl]thiophen-2-yl}-5-[4-(methylsulfamoyl)phenyl]thiophen-3-yl)acetic acid], for which the 50% inhibitory concentration (IC50) is 3.16 µM.

The molecule `C[S+]([O-])c1cccc(-c2cc(CC(=O)O)c(-c3ccc(-c4sc(-c5cccc([S+](C)[O-])c5)cc4CC(=O)O)s3)s2)c1` (stereo not shown) [Example 24, 2-(2-{5-[3-(Carboxymethyl)-5-(3-methanesulfinylphenyl)thiophen-2-yl]thiophen-2-yl}-5-(3-methanesulfinylphenyl)thiophen-3-yl)acetic acid] gave an IC50 of 10 µM.

In turn, `O=C(O)Cc1ccsc1-c1ccc(-c2sc(-c3cccc(-c4cc(CC(=O)O)c(-c5ccc(-c6sccc6CC(=O)O)s5)s4)c3)cc2CC(=O)O)s1` [Example 34, 2-(2-{5-[3-(Carboxymethyl)-5-{3-[4-(carboxymethyl)-5-{5-[3-(carboxymethyl)thiophen-2-yl]thiophen-2-yl}thiophen-2-yl]phenyl}thiophen-2-yl]thiophen-2-yl}thiophen-3-yl)acetic acid] had a half-inhibitory concentration (IC50) of 0.794 µM.

Molecule `CS(=O)(=O)c1ccc(-c2sc(-c3ccc(-c4cc(CC(=O)O)c(-c5ccc(S(C)(=O)=O)cc5)s4)s3)cc2CC(=O)O)cc1` [Example 36, 2-(5-{5-[4-(Carboxymethyl)-5-(4-methanesulfonylphenyl)thiophen-2-yl]thiophen-2-yl}-2-(4-methanesulfonylphenyl)thiophen-3-yl)acetic acid] showed an IC50 of 5.01 µM.

In turn, `CS(=O)(=O)c1ccc(-c2sc(-c3ccc(-c4cc(CC(=O)O)c(-c5ccc(S(C)(=O)=O)cc5)s4)cc3)cc2CC(=O)O)cc1` [Example 37, 2-(5-{4-[4-(Carboxymethyl)-5-(4-methanesulfonylphenyl)thiophen-2-yl]phenyl}-2-(4-methanesulfonylphenyl)thiophen-3-yl)acetic acid] gave an IC50 of 5.01 µM.

In turn, `O=C(O)Cc1ccsc1-c1ccc(-c2sc(-c3ccc(-c4cc(CC(=O)O)c(-c5ccc(-c6sccc6CC(=O)O)cc5)s4)cc3)cc2CC(=O)O)cc1` [Example 38, 2-(2-{4-[3-(Carboxymethyl)-5-{4-[4-(carboxymethyl)-5-{4-[3-(carboxymethyl)thiophen-2-yl]phenyl}thiophen-2-yl]phenyl}thiophen-2-yl]phenyl}thiophen-3-yl)acetic acid] showed an IC50 of 1.58 µM.

For the molecule `O=C(O)Cc1ccsc1-c1ccc(-c2sc(-c3ccc(-c4cc(CC(=O)O)c(-c5ccc(-c6sccc6CC(=O)O)cc5)s4)s3)cc2CC(=O)O)cc1` [Example 40, 2-(5-{5-[4-(Carboxymethyl)-5-{4-[3-(carboxymethyl)thiophen-2-yl]phenyl}thiophen-2-yl]thiophen-2-yl}-2-{4-[3-(carboxymethyl)thiophen-2-yl]phenyl}thiophen-3-yl)acetic acid], the IC50 is 1.26 µM.

The molecule `CS(=O)(=O)c1ccc(-c2cc(CCN)c(-c3ccc(-c4sc(-c5ccc(S(C)(=O)=O)cc5)cc4CCN)s3)s2)cc1` [Example 41, 2-(2-{5-[3-(2-Aminoethyl)-5-(4-methanesulfonylphenyl)thiophen-2-yl]thiophen-2-yl}-5-(4-methanesulfonylphenyl)thiophen-3-yl)ethan-1-amine] had an IC50 of 0.794 µM.

The molecule `NCCc1ccsc1-c1ccc(-c2sc(-c3ccc(-c4cc(CCN)c(-c5ccc(-c6sccc6CCN)s5)s4)s3)cc2CCN)s1` [Example 42, 2-(2-{5-[3-(2-Aminoethyl)-5-{5-[4-(2-aminoethyl)-5-{5-[3-(2-aminoethyl)thiophen-2-yl]thiophen-2-yl}thiophen-2-yl]thiophen-2-yl}thiophen-2-yl]thiophen-2-yl}thiophen-3-yl)ethan-1-amine] showed a half-inhibitory concentration (IC50) of 0.251 µM.

Turning to `O=C(O)Cc1cc(-c2ccc(-c3ccccc3C(=O)O)s2)sc1-c1ccc(-c2sc(-c3ccc(-c4ccccc4C(=O)O)s3)cc2CC(=O)O)s1` [Example 43, 2-{5-[4-(Carboxymethyl)-5-{5-[3-(carboxymethyl)-5-[5-(2-carboxyphenyl)thiophen-2-yl]thiophen-2-yl]thiophen-2-yl}thiophen-2-yl]thiophen-2-yl}benzoic acid], the IC50 was 3.98 µM.

As to `CS(=O)(=O)c1ccc(-c2cc(CCC(=O)O)c(-c3ccc(-c4sc(-c5ccc(S(C)(=O)=O)cc5)cc4CCC(=O)O)s3)s2)cc1` [Example 51, 3-(2-{5-[3-(2-Carboxyethyl)-5-(4-methanesulfonylphenyl)thiophen-2-yl]thiophen-2-yl}-5-(4-methanesulfonylphenyl)thiophen-3-yl)propanoic acid], the concentration for half-maximal inhibition (IC50) is 1.58 µM and 7.94 µM.

In turn, `O=C(O)CCc1cc(-c2ccc(C(=O)O)s2)sc1-c1ccc(-c2sc(-c3ccc(C(=O)O)s3)cc2CCC(=O)O)s1` [Example 53, 5-[4-(2-Carboxethyl)-5-{5-[3-(2-carboxyethyl)-5-(5-carboxythiophen-2-yl)thiophen-2-yl]thiophen-2-yl}thiophen-2-yl]thiophene-2-carboxylic acid] gave an IC50 of 3.98 µM.

For `O=C(O)Cc1cc(-c2ccc(-c3cc(CC(=O)O)c(-c4ccc(-c5ccc(C(=O)O)cc5)s4)s3)s2)sc1-c1ccc(-c2ccc(C(=O)O)cc2)s1` [Example 54, 4-{5-[3-(Carboxymethyl)-5-{5-[4-(carboxymethyl)-5-[5-(4-carboxyphenyl)thiophen-2-yl]thiophen-2-yl]thiophen-2-yl}thiophen-2-yl]thiophen-2-yl}benzoic acid], the IC50 is 1.26 µM.

In turn, `O=C(O)Cc1cccc(-c2ccc(-c3cc(CC(=O)O)c(-c4ccc(-c5sc(-c6ccc(-c7cccc(CC(=O)O)c7)s6)cc5CC(=O)O)s4)s3)s2)c1` [Example 57, 2-(2-{5-[3-(Carboxymethyl)-5-{5-[3-(carboxymethyl)phenyl]thiophen-2-yl}thiophen-2-yl]thiophen-2-yl}-5-{5-[3-(carboxymethyl)phenyl]thiophen-2-yl}thiophen-3-yl)acetic acid] gave a 50% inhibitory concentration (IC50) of 0.398 µM.

The values above are taken from patent publication US9359311B2, “Substituted aromatic oligomers” (NEUROSCIOS GMBH, priority 2011, dated 2016).
